Laboratory results reported in EP4803511A1, “SMALL MOLECULE COMPOUND HAVING SULFONIC ACID OR SULFINIC ACID LACTONE STRUCTURE, COMPOSITION AND USE THEREOF” (Hangzhou Phecdamed Co., Ltd., priority 2023, dated 2025).

Experiments:
[1] = test system: IL-1β; experiment: IL-1β gene expression in HaCaT after UVB radiation (q-PCR); format: cell-based, human; conditions: UVB 80 mJ/cm^2, 24 hrs, dose-dependent
Excerpt: (§1) In the following Test Examples 6-1 and 6-2, using immortalized keratinocytes (HaCaT) and UVB to establish a model, after the compound to be test was applied to HaCaT, the expression levels of TNF-α, IL-8, IL-1β and EP2 were detected; using immortalized keratinocytes (HaCaT) and capsaicin to establish a model, after the compound to be test was applied to HaCaT, the expression level of TRPV1 was detected, so as to evaluate the soothing effect of the test substance from multiple dimensions.
(§2) • 1) Cell inoculation: HaCaT cells were inoculated into a 6-well plate at 6×10^5/well, cultured in an incubator (37°C, 5% CO2) for 12 hrs, and a normal control group (0 mJ/cm^2 + vehicle control), a model control group (80 mJ/cm^2 + vehicle control), a low concentration group (80 mJ/cm^2 + low concentration compound), a medium concentration group (80 mJ/cm^2 + medium concentration compound), and a high concentration group (80 mJ/cm^2 + high concentration compounds) were respectively provided. • 2) UVB modeling: The HaCaT cells were washed 3 times with D'Hanks before UVB radiation, 1 mL of D'Hanks was added into the wells, to make the cells to be immersed, and the control group was coated with tinfoil and placed in the dark. […]

[2] = test system: COL3A1; experiment: Collagen III gene expression in HaCaT human immortalized keratinocytes; format: cell-based; conditions: 24 hrs, dose-dependent
Excerpt: (§3) Skin fragility is partly attributed to changes in hemidesmosomes and the expression downregulation of various collagen proteins (Collagen I, III, IV, VII) or laminins (such as LN-5) at the dermal-epidermal junction. LN-5 has been proven to be a component of anchoring fibers in the basement membrane of the skin, cornea, conjunctiva, and other tissues. LN-5 participates in cell-cell interactions through the mediation of integrins and proteoglycans, thereby playing a crucial role in cell adhesion, growth, migration, and differentiation. The appearance of wrinkles is closely related to the normal synthesis and expression of collagen and laminins. Therefore, the increase of the above collagen content and LN-5 can achieve a certain role in resisting wrinkles, and plays an important role in the aging process of the skin. Therefore, the anti-wrinkle effect of the compound to be tested was evaluated by detecting the level of Collage I protein of […] by ELISA, and detecting the transcription levels of epidermal cells (keratinocytes) III, IV, VII and LN -5 by Real-Time PCR. The following Test Examples 8-1 and 8-2 evaluated the anti-wrinkle efficacy of compounds using HaCaT human immortalized keratinocytes and HSF human skin fibroblasts. […]

[3] = test system: LAMA5; experiment: LN-5 gene expression in HaCaT human immortalized keratinocytes; format: cell-based; conditions: 24 hrs, dose-dependent
Excerpt: as §3

[4] = test system: ampk; experiment: Zebrafish oxidative aging model (menadione), ampk gene expression by RT-qPCR; format: in vivo; conditions: I-8 at 2.5 µg/mL, 22 hrs, 4 µM menadione; compared to the modeling group, statistical significance
Description: Experimental animal: Healthy wild-type AB strain zebrafish at 48 hpf (hours post-fertilization)
Healthy AB strain zebrafish were taken as experimental animal. A zebrafish oxidative aging model was constructed using chemical mutagenesis with 4 µM menadione as the modeling drug. Fucoxanthin was used as a positive control compound. After treating the zebrafish oxidative aging model with different concentrations of I-8 for 22 hrs, changes in the reactive oxygen species (ROS) content, β-galactosidase activity, and the expression of three antioxidant and anti-aging related genes (Cu/Zn-sod, Mn-sod, and ampk) were respectively detected and statistically analyzed.
During the experiment, the modeling drug, positive compound, and I-8 were dispersed together in the culture water of zebrafish. […] Cell ROX™ Deep Red fluorescent probes and β-galactosidase staining kits were used to specifically label ROS and β-galactosidase in the fish, respectively, and the staining intensity was quantified using Image-Pro Plus software. After extracting RNA from the whole fish, the expression changes of three genes (Cu/Zn-sod, Mn-sod, and ampk) in the fish were detected at the mRNA level using Quantitative Real-time PCR (RT-qPCR). The data were statistically analyzed using GraphPad software.

[5] = test system: TRPV1; experiment: TRPV1 gene expression in HaCaT after capsaicin stimulation (q-PCR); format: cell-based, human; conditions: 15 µM capsaicin, dose-dependent
Excerpt: as §1
• 1) Cell inoculation: HaCaT cells were inoculated into a 6-well plate at 6 × 10^5/well, cultured in an incubator (37 °C, 5% CO2) for 12 hrs, and a normal control group (0 µM capsaicin + vehicle control), a model control group […] concentration group (15 µM capsaicin + low concentration compound), a medium concentration group (15 µM capsaicin + medium concentration compound), and a high concentration group (15 µM capsaicin + high concentration compound) were respectively provided. • 2) Induction and administration: The culture solution in the 6-well plate was discarded and the administration operation was carried out. The culture solution containing the test substance and the capsaicin stock solution was added according to the above drug group, and 1 mL was added to each well. […]

[6] = test system: IL-8; experiment: IL-8 gene expression in HaCaT after UVB radiation (q-PCR); format: cell-based, human; conditions: UVB 80 mJ/cm^2, 24 hrs, dose-dependent
Excerpt: as §1, §2

[7] = test system: COL4A1; experiment: Collagen IV gene expression in HaCaT human immortalized keratinocytes; format: cell-based; conditions: 24 hrs, dose-dependent
Excerpt: as §3

O=S1(=O)Oc2cc(O)ccc2-c2ccc(O)cc21 [Compound I-8]
expression level of IL-1β [1]: downregulating | COL341 gene expression [2]: upregulate | LAMA5 gene expression [3]: upregulate | expression of the ampk gene [4]: upregulated | expression level of TRPV1 [5]: downregulating | expression level of IL-8 [6]: downregulating | COL4A1 gene expression [7]: upregulate
